Results: US20060258716A1, “Methods and compositions for the treatment of helicobacter pylori-associated diseases using endoperoxide bridge-containing compounds” (priority 2003, published 2006)
≈ marks a conversion by molar mass, not a printed value.

Experiments:
H. pylori [1] = assay: Growth inhibition of H. pylori (MIC), growth monitored by spectrophotometer; assay type: cell-based; settings: for minimal inhibitory concentration (MIC): Example 4, FIG. 4
Description: (§1) To test the effect of artemisinin on the growth of H. pylori, freshly prepared bacteria were exposed to various concentrations of artemisinin. Bacteria were grown for fixed incubation times and their growth levels were monitored using a spectrophotometer. The growth of treated bacteria was compared to that of non-treated bacteria.
as §1, with “effectivity” for “effect”, “artemisinin derivatives” for “artemisinin”, “artemisinin derivatives.” for “artemisinin.”

H. pylori [2] = assay: Minimal bactericidal concentration: treated H. pylori plated on solid medium, colonies counted; assay type: cell-based; settings: no colony-forming units on solid medium
Description: To further determine the antibacterial effect of artemisinin, H. pylori maintained in the presence of various concentrations of artemisinin were plated on solid medium and the number of single colonies was monitored.

E. coli = assay: MBC against E. coli; assay type: cell-based
Description: (§2) To determine whether the effect of artemisinin is specific to H. pylori, the ability of artemisinin to inhibit the growth of E. coli and P. acnes was tested. In contrary to H. pylori, which is a microaerophilic bacterium, E. coli is an aerobic intestinal bacterium, and P. acnes is an anaerobic dermal bacterium. These bacteria were exposed to various concentrations of artemisinin, and MIC and MBC values were determined.

P. acnes = assay: MBC against P. acnes; assay type: cell-based
Description: as §2

[3] = tested on: Lactobacillus acidophilus; assay: MIC / growth of Lactobacillus acidophilus; assay type: cell-based
Description: (§3) The effect of artemisinin on the growth and viability of Lactobacillus acidophilus (L. acidophilus) that is part of the normal flora of the intestine was examined. L. acidophilus bacteria were grown with various concentration of artemisinin and its effect was determined.

[4] = tested on: Lactobacillus acidophilus; assay: MBC against Lactobacillus acidophilus; assay type: cell-based; settings: L. acidophilus
Description: as §3

[5] = tested on: H. pylori exhibiting resistance to clarithromycin (CLR) and metronoidazole; assay: Growth of clarithromycin- and metronidazole-resistant H. pylori strains; assay type: cell-based; settings: 2.5-10 μM artemisinin, 3 days, micro-aerophilic conditions, FIG. 2
Description: Unsuccessful therapy in patients infected with H. pylori is frequently correlated to clarithromycin and metronidazole resistance. […] Bacterial cultures were incubated in micro-aerophilic conditions. The effect of clarithromycin or artemisinin on bacterial growth was tested using a spectrophotometer after 3 days.

H. pylori [6] = assay: Combined effect of artemisinin and omeprazole on H. pylori growth; assay type: cell-based; settings: 0.5 μg/ml artemisinin alone, 3 days
Description: In order to explore the possible synergism between artemisinin and a PPI, the growth of bacteria in the presence of artemisinin, omeprazole or both was examined. H. pylori bacteria were grown in the presence of 3-24 μg/ml omeprazole or 0.5-4 μg/ml of artemisinin. Bacterial cultures were incubated in micro-aerophilic conditions. The combined effect of artemisinin and omeprazole on bacterial growth was tested using a spectrophotometer after 3 days.

cancer cells = settings: cited from earlier work
anaerobic bacteria = settings: cited from earlier work
H. pylori [7] = assay: Timed artesunate exposure and wash-out, regrowth of H. pylori cultures; assay type: cell-based; settings: 0.625 or 6.25 mM, exposure 0.5-18 hours, then 36 hours artesunate-free medium, FIG. 5
Description: Artesunate (0.625 or 6.25 mM) was added to bacterial cultures (0.2 O.D.600) for various time points (0.5, 1, 2, 4, 6, and 18 hours). Artesunate was then washed out from the cultures by precipitation of the bacteria and washing in PBS, after which bacteria were re-suspended in a fresh artesunate-free medium. Bacteria were maintained in artesunate-free medium for additional 36 hours and bacterial growth was then determined by spectrophotometer.

H. pylori [8] = assay: Anti-Helicobacter activity of artesunate after pre-incubation in simulated gastric fluid; assay type: cell-based; settings: 1 mg/ml pre-incubated in SGF pH 1.2 at 37° C. up to 24 h, cultures then exposed 36 h, FIG. 6
Description: Artesunate (1 mg/ml) was pre-incubated in simulated gastric fluid (SGF, pH 1.2) or in bacterial broth medium (BBM, natural pH) at 37° C. for various time periods (1, 2, 4, 6, and 24 hours). After the pre-incubation, bacterial cultures (0.01 O.D) were exposed for 36 h to culture medium containing the pre-incubated artesunate. The effect of artesunate on bacterial growth was then determined by spectrophotometer.

[9] = tested on: H. pylori bacterial strain SS1; assay: H. pylori-infected mice, colony forming units from homogenized stomach; assay type: in vivo; settings: oral 50 mg/kg 3 times/day for 8 days, day 4 and 8, versus placebo, FIG. 7
Description: The effect of artesunate against H. pylori infection in vivo was tested in H. pylori-infected mice. Mice were infected by inoculation (×3/day) with suspension of 10^9 H. pylori bacterial strain SS1. Two weeks following the infection, mice were treated orally with 50 mg/kg artesunate 3 times/day for 8 days. The level of bacterial infection was determined by counting the number of colony forming units derived from the homogenized stomach on day 4 and 8 of the treatment.

ulcerative lesion index = settings: lesions produced by ethanol and indomethacin in rats; cited from earlier work
[10] = tested on: E. coli strains defective in DNA-gyrase enzyme; settings: cited from earlier work
[11] = tested on: wild type of E. coli having intact DNA gyrase genes; settings: cited from earlier work

In the case of `CCO[C@H]1O[C@@H]2O[C@@]3(C)CC[C@H]4[C@H](C)CC[C@@H]([C@H]1C)[C@@]24OO3` [arteether], the “minimal inhibitory concentration (MIC)” value (H. pylori [1]) is reported as 0.15 to 0.3 µM.

For `CO[C@H]1O[C@@H]2O[C@@]3(C)CC[C@H]4[C@H](C)CC[C@@H]([C@H]1C)[C@@]24OO3` [artemether], the “minimal inhibitory concentration (MIC)” value (H. pylori [1]) was 0.3 to 0.6 µM.

For `C[C@@H]1CC[C@H]2[C@@H](C)C(=O)O[C@@H]3O[C@@]4(C)CC[C@@H]1[C@]32OO4` [artemisinin], the “MIC (minimal inhibitory concentration)” value (H. pylori [1]; Example 1, Table 1) was 2.5 µM (≈ 0.706 µg/mL), the “MBC (minimal bactericidal concentration)” value (H. pylori [2]) was 125 to 250 µM and the “MBC (minimal bactericidal concentration)” value (E. coli) was over 5000 µM. For the same compound, the “MBC (minimal bactericidal concentration)” value (P. acnes) was over 5000 µM, the “MIC (minimal inhibitory concentration)” value ([3]; L. acidophilus) was over 5000 µM and the “Effect on growth of L. acidophilus” value ([3]; any used concentration below 5 mg/ml) was “did not affect the growth”. The “MBC (minimal bactericidal concentration)” value [4] was over 5000 µM, the “Sensitivity of clarithromycin- and metronidazole-resistant H. pylori strains” value [5] was “significant sensitivity” and the “Bacterial growth, artemisinin alone” value (H. pylori [6]) was “not effective alone”. For the same compound, the “Concentration range toxic to cancer cells in vitro” value (cancer cells) was 20 to 180 µM and the Anti-microbial activity (anaerobic bacteria) was “possesses an anti-microbial activity”.

For `C[C@H]1[C@H](OC(=O)CCC(=O)O)O[C@@H]2O[C@@]3(C)CC[C@H]4[C@H](C)CC[C@@H]1[C@@]24OO3` [artesunate], the “Bacterial growth after wash-out of artesunate” value (H. pylori [7]) was “irreversible bacterial eradication”, the “Anti-Helicobacter activity after pre-incubation in low pH” value (H. pylori [8]) was “preserved” and the “Number of colony forming units from homogenized stomach” value [9] was “efficiently reduced the number of colony forming units”.

In the case of `C[C@@H]1CC[C@H]2[C@@H](C)C(=O)O[C@@H]3O[C@@]4(C)CC[C@@H]1[C@]32O4` [deoxyartemisinin], the “Gastric cytoprotection (ulcerative lesion index)” value (ulcerative lesion index) is given as “provided gastric cytoprotection”.

For `CCO[C@@H]1O[C@@H]2O[C@]3(C)CC[C@H]4[C@H](C)CC[C@@H]([C@H]1C)[C@@]24OO3` [α-arteether], the Growth inhibition [10] is listed as “inhibits the growth” and the Sensitivity [11] is listed as “not sensitive”.

In the case of dihydro-epideoxyarteannuin B, the “Gastric cytoprotection (ulcerative lesion index)” value (ulcerative lesion index) is listed as “provided gastric cytoprotection”.
